# Laboratory results as given in US6458764B1, “GRF analogs with increased biological potency” (Theratechnologies Inc., priority 1995, dated 2002).
# Where no end group is shown, it is not given here. The star is where a group is joined. Hexanoyl = CCCCCC(=O)*
# Key:
# [1] = system: serum IGF-I; assay: Repeated S.C. administrations of GRF analogs, serum IGF-I levels in pigs (Example I, Experiments 1-3; radioimmunoassay); type: in vivo, pigs (Landrace x Yorkshire); conditions: for serum IGF-I, Day 1 (pretreatment): pretreatment baseline; for increase in IGF-I levels: P<0.05
# Procedure: The objective of these experiments was to assess the potential of the GRF analogs as anabolic agents.
# Therefore, in order to investigate the anabolic potency of the fatty acid-GRF analogs, their ability to increase IGF-I levels following repeated S.C. administrations in pig was evaluated.
# 26 Landrace x Yorkshire castrated male pigs (40-45 kg BW) were randomly distributed into 4 experimental groups:
# Each animal was injected BID (twice a day) subcutaneously for 4 consecutive days. One blood sample was collected each morning prior to the first injection of the day, and the day after the last injection, for IGF-I measurement.
# 40 Landrace x Yorkshire castrated male pigs (40-45 kg BW) were randomly distributed into 5 experimental groups:
# (§1) Each animal was injected BID (twice a day) subcutaneously for 5 consecutive days. One blood sample was collected each morning prior to the first injection of the day, and the day after the last injection, for IGF-I measurement.
# 48 Landrace x Yorkshire castrated male pigs (40-45 kg BW) were randomly distributed into 6 experimental groups:
# as §1, with “The selected doses were 30 μg/kg for hGRF(1-44)NH2 analogs and 20 μg/kg for hGRF(1-29)NH2 analogs, which give identical doses on a molar basis. Each” for “Each”, “measurements.” for “measurement.”
# IGF-I levels were measured in pig serum by double antibody radioimmunoassay after formic acid-acetone extraction, as previously described (Abribat T. et al., 1993, J. Endocrinol., 39:583-589). The extraction prior to radioimmunoassay is a necessary step to remove endogenous IGF-binding proteins.
# In both experiments, the IGF-I data were analyzed by a two way repeated measure analysis of variance, with day and treatment (GRF analog) as sources of variation. Multiple comparison procedures were there run (Student-Newman Keuls method). A P<0.05 was considered as statistically significant.
# [2] = system: serum IGF-I; assay: Comparative effects of GRF analogs on IGF-I levels in pigs (Example II, D-IGF-I, FIG. 1); type: in vivo, pigs (Landrace x Yorkshire); conditions: 20 μg/kg 2×/day S.C., days 1 to 5, n=8 pigs per group
# Procedure: This was a 5-day treatment, twice a day S.C. administration of one single dose of each test article vs saline. This experiment was conducted to compare the efficacy of (Aminohexanoyl)0 hGRF (1-29) NH2, (Hexylformiate)0 hGRF (1-29) NH2, (Hexenoyl trans-2)0 hGRF (1-29) NH2, (Hexenoyl trans-3)0 hGRF (1-29) NH2 and (Muconoyl)0 hGRF (1-29) NH2 to that of(Hexanoyl)0 hGRF (1-29) NH2.
# ADMINISTRATION: Two daily subcutaneous injections.
# TEST SYSTEM: Landrace x Yorkshire pigs.
# ANIMAL DESCRIPTION: Fifty six (56) growing barrows pigs weighing 35 kg at the time of purchase.
# DESIGN: Fifty six (56) pigs were randomly distributed into 7 experimental groups (n=8 pigs per group). Each group received two daily S.C. administration of the following treatments (volume: 3 ml, S.C. injection).
# Treatments were administered from day 1 to 5. Immediately before the injections, one blood sample were collected from each animal, and additional blood samples were collected on day 6.
# Blood samples were allowed to clot, serum was harvested by centrifugation and submitted to IGF-I assays.
# Results are shown in FIG. 1 as D-IGF-I, which is defined as the increase in IGF-I levels from day 1 (pretreatment levels) to day 6 (after 5 days of GRFs administrations).
# [3] = Experiment 3, 30 μg/kg BID SC × 5 days, mean of 8
# [4] = Experiment 1, 20 μg/kg BID SC × 4 days, mean of 6 to 7
# [5] = Experiment 3, 20 μg/kg BID SC × 5 days, mean of 8
substance,measurement,setting,value
"[hexanoyl^0]hGRF(1-44)NH2 (Hexanoyl-YADAIFTNSYRKVLGQLSARKLLQDIMSRQQGESNQERGARARL-NH2; UniProt P01286 32-75, looked up) [[hexanoyl^0] hGRF(1-44)NH2]","serum IGF-I, Day 2",[1]; [3],290 ng/mL
same,"serum IGF-I, Day 3",[1]; [3],340 ng/mL
same,"serum IGF-I, Day 4",[1]; [3],372 ng/mL
same,"serum IGF-I, Day 5",[1]; [3],361 ng/mL
same,"serum IGF-I, Day 6",[1]; [3],388 ng/mL
same,"serum IGF-I, Day 1 (pretreatment)",[1]; [3],241 ng/mL
same,increase in IGF-I levels,"[1]; Experiment 3, 30 μg/kg BID SC, day 3",41%
same,increase in IGF-I levels,"[1]; Experiment 3, 30 μg/kg BID SC, day 4",54%
same,increase in IGF-I levels,"[1]; Experiment 3, 30 μg/kg BID SC, day 5",50%
same,increase in IGF-I levels,"[1]; Experiment 3, 30 μg/kg BID SC, day 6",61%
"[butyryl^0] hGRF(1-29)NH2 (YADAIFTNSYRKVLGQLSARKLLQDIMSR; HELM PEPTIDE1{[CCCC(=O)[*:2]].Y.A.D.A.I.F.T.N.S.Y.R.K.V.L.G.Q.L.S.A.R.K.L.L.Q.D.I.M.S.R.[am]}$$$$V2.0; SMILES CCCC(=O)N[C@@H](Cc1ccc(O)cc1)C(=O)N[C@@H](C)C(=O)N[C@@H](CC(=O)O)C(=O)N[C@@H](C)C(=O)N[C@H](C(=O)N[C@@H](Cc1ccccc1)C(=O)N[C@H](C(=O)N[C@@H](CC(N)=O)C(=O)N[C@@H](CO)C(=O)N[C@@H](Cc1ccc(O)cc1)C(=O)N[C@@H](CCCNC(=N)N)C(=O)N[C@@H](CCCCN)C(=O)N[C@H](C(=O)N[C@@H](CC(C)C)C(=O)NCC(=O)N[C@@H](CCC(N)=O)C(=O)N[C@@H](CC(C)C)C(=O)N[C@@H](CO)C(=O)N[C@@H](C)C(=O)N[C@@H](CCCNC(=N)N)C(=O)N[C@@H](CCCCN)C(=O)N[C@@H](CC(C)C)C(=O)N[C@@H](CC(C)C)C(=O)N[C@@H](CCC(N)=O)C(=O)N[C@@H](CC(=O)O)C(=O)N[C@H](C(=O)N[C@@H](CCSC)C(=O)N[C@@H](CO)C(=O)N[C@@H](CCCNC(=N)N)C(N)=O)[C@@H](C)CC)C(C)C)[C@@H](C)O)[C@@H](C)CC; UniProt P01286 32-60, looked up, fragment)","serum IGF-I, Day 2",[1]; [4],281 ng/mL
same,"serum IGF-I, Day 3",[1]; [4],302 ng/mL
same,"serum IGF-I, Day 4",[1]; [4],289 ng/mL
same,"serum IGF-I, Day 5",[1]; [4],293 ng/mL
same,"serum IGF-I, Day 1 (pretreatment)",[1]; [4],278 ng/mL
"[octanoyl^0] hGRF(1-29)NH2 (YADAIFTNSYRKVLGQLSARKLLQDIMSR; HELM PEPTIDE1{[CCCCCCCC(=O)[*:2]].Y.A.D.A.I.F.T.N.S.Y.R.K.V.L.G.Q.L.S.A.R.K.L.L.Q.D.I.M.S.R.[am]}$$$$V2.0; SMILES CCCCCCCC(=O)N[C@@H](Cc1ccc(O)cc1)C(=O)N[C@@H](C)C(=O)N[C@@H](CC(=O)O)C(=O)N[C@@H](C)C(=O)N[C@H](C(=O)N[C@@H](Cc1ccccc1)C(=O)N[C@H](C(=O)N[C@@H](CC(N)=O)C(=O)N[C@@H](CO)C(=O)N[C@@H](Cc1ccc(O)cc1)C(=O)N[C@@H](CCCNC(=N)N)C(=O)N[C@@H](CCCCN)C(=O)N[C@H](C(=O)N[C@@H](CC(C)C)C(=O)NCC(=O)N[C@@H](CCC(N)=O)C(=O)N[C@@H](CC(C)C)C(=O)N[C@@H](CO)C(=O)N[C@@H](C)C(=O)N[C@@H](CCCNC(=N)N)C(=O)N[C@@H](CCCCN)C(=O)N[C@@H](CC(C)C)C(=O)N[C@@H](CC(C)C)C(=O)N[C@@H](CCC(N)=O)C(=O)N[C@@H](CC(=O)O)C(=O)N[C@H](C(=O)N[C@@H](CCSC)C(=O)N[C@@H](CO)C(=O)N[C@@H](CCCNC(=N)N)C(N)=O)[C@@H](C)CC)C(C)C)[C@@H](C)O)[C@@H](C)CC; UniProt P01286 32-60, looked up, fragment)","serum IGF-I, Day 2",[1]; [4],287 ng/mL
same,"serum IGF-I, Day 3",[1]; [4],301 ng/mL
same,"serum IGF-I, Day 4",[1]; [4],301 ng/mL
same,"serum IGF-I, Day 5",[1]; [4],318 ng/mL
same,"serum IGF-I, Day 1 (pretreatment)",[1]; [4],316 ng/mL
"(Hexylformiate)0 hGRF (1-29) NH2 (hexylformiate-YADAIFTNSYRKVLGQLSARKLLQDIMSR-NH2; UniProt P01286 32-60, looked up, fragment) [hexylformiate-hGRF(1-29)NH2]",D-IGF-I: increase in IGF-I levels from day 1 (pretreatment) to day 6,[2],significantly increased IGF-I levels
"[hexanoyl^0, 30]hGRF(1-29)NH2 (Hexanoyl-YADAIFTNSYRKVLGQLSARKLLQDIMSR-NH2; also: hexanoyl at position 30; UniProt P01286 32-60, looked up, fragment) [[hexanoyl^0,30] hGRF(1-29)NH2]","serum IGF-I, Day 2",[1]; [5],212 ng/mL
same,"serum IGF-I, Day 3",[1]; [5],253 ng/mL
same,"serum IGF-I, Day 4",[1]; [5],271 ng/mL
same,"serum IGF-I, Day 5",[1]; [5],277 ng/mL
same,"serum IGF-I, Day 6",[1]; [5],294 ng/mL
same,"serum IGF-I, Day 1 (pretreatment)",[1]; [5],205 ng/mL
same,increase in IGF-I levels,"[1]; Experiment 3, 20 μg/kg BID SC, day 4",32%
same,increase in IGF-I levels,"[1]; Experiment 3, 20 μg/kg BID SC, day 5",35%
same,increase in IGF-I levels,"[1]; Experiment 3, 20 μg/kg BID SC, day 6",43%
"(Aminohexanoyl)0 hGRF (1-29) NH2 (aminohexanoyl-YADAIFTNSYRKVLGQLSARKLLQDIMSR-NH2; UniProt P01286 32-60, looked up, fragment) [aminohexanoyl-hGRF(1-29)NH2]",D-IGF-I: increase in IGF-I levels from day 1 (pretreatment) to day 6,[2],did not
"[hexanoyl^30]hGRF(1-29)NH2 (YADAIFTNSYRKVLGQLSARKLLQDIMSR-NH2; also: hexanoyl at position 30; UniProt P01286 32-60, looked up, fragment) [[hexanoyl^30] hGRF(1-29)NH2, hexanoyl function anchored at the C-terminal region of hGRF(1-29)NH2]","serum IGF-I, Day 2",[1]; [5],270 ng/mL
same,"serum IGF-I, Day 3",[1]; [5],287 ng/mL
same,"serum IGF-I, Day 4",[1]; [5],278 ng/mL
same,"serum IGF-I, Day 5",[1]; [5],276 ng/mL
same,"serum IGF-I, Day 6",[1]; [5],327 ng/mL
same,"serum IGF-I, Day 1 (pretreatment)",[1]; [5],297 ng/mL
"(Hexenoyl trans-2)0 hGRF (1-29) NH2 ({trans‑2‑hexenoyl}-YADAIFTNSYRKVLGQLSARKLLQDIMSR-NH2; UniProt P01286 32-60, looked up, fragment) [hexenoyl trans2-hGRF(1-29)NH2]",D-IGF-I: increase in IGF-I levels from day 1 (pretreatment) to day 6,[2],significantly increased IGF-I levels
"(Muconoyl)0 hGRF (1-29) NH2 (muconoyl-YADAIFTNSYRKVLGQLSARKLLQDIMSR-NH2; UniProt P01286 32-60, looked up, fragment) [muconoyl-hGRF(1-29)NH2]",D-IGF-I: increase in IGF-I levels from day 1 (pretreatment) to day 6,[2],did not
